Source: US20110086797A1, “CONTROL OF SPORE GERMINATION” (priority 2007, published 2011)
“Also recorded” adds a separate entry of the source. Where two headings read alike, the source gives them in different places.

Experiments:
[1] = test system: B. subtilis spores; test: Measurement of germination by loss of heat resistance; format: cell-based, Bacillus subtilis
[2] = test system: B. subtilis spores; test: Measurement of germination by fluorescence (Syto-9 dye); format: cell-based, Bacillus subtilis; conditions: 1 μM Bryostatin
[3] = test system: B. subtilis wild type spores; test: Sensitivity to antibiotic (tetracycline) after stimulation of germination; conditions: for % Loss in viable cells: germinant 60 min at 37° C. (muropeptide 40 μM, bryostatin 1 μM), then tetracycline 10 μg/ml 60 min, relative to no germinant

Question: For CC(=O)N[C@H]1C(O)O[C@H](CO)[C@@H](O)[C@@H]1O[C@H](C)C(=O)N[C@@H](C)C(=O)N[C@H](CCC(=O)O)C(N)=O (mixture of isomers) [muramyl dipeptide], which “germination of wild type spores (result in words)” value (shortened to “germination of wild type spores”) [1] is on record?
Answer: The value was “failed to induce germination”.

Question: CCC/C=C/C=C/C(=O)O[C@H]1/C(=C/C(=O)OC)C[C@H]2C[C@H]([C@@H](C)O)OC(=O)C[C@H](O)C[C@@H]3C[C@H](OC(C)=O)C(C)(C)[C@](O)(C[C@@H]4C/C(=C/C(=O)OC)C[C@H](/C=C/C(C)(C)[C@]1(O)O2)O4)O3 [Bryostatin] was tested. Which “Fluorescence Germination Results” value ([2]; Wild-type spores, 5' at 37° C., excitation/emission 485/530) did it give?
Answer: The value was 14331.

Question: What about the “Fluorescence Germination Results” value ([2]; ΔprKC (kinase mutant) spores, 5' at 37° C., 485/530) of the same compound?
Answer: The value was 5208.

Question: What about the “Fluorescence Germination Results” value ([2]; ΔprpC (phosphatase mutant) spores, 5' at 37° C., 485/530) of the same compound?
Answer: Its value is 13183.

Question: And the “Fluorescence Germination Results” value ([2]; ΔprpC, PrpC (phosphatase mutant overexpressing phosphatase from an ectopic site) spores, 485/530)?
Answer: Its value is 5529.

Question: And the “germination of ΔprkC spores (result in words)” value (from here on “germination of ΔprkC spores”) [1]?
Answer: The value was “had no effect”.

Question: And the maximum % germination ([1]; […], 1.0 μM bryostatin, 60 min)?
Answer: Its maximum % germination is ~40%.

Question: What about the “% Loss in viable cells” value [3] of the same compound?
Answer: The value was 32 ± 7%.

Question: And the “sensitivity of treated spores to antibiotics (result in words)” value ([3]; wild type B. subtilis spores, tetracycline and spectinomycin)?
Answer: The value was “become sensitive to the ribosomal antibiotics tetracycline and spectinomycin”.

Question: How did the “germination of ΔprkC spores” value [1] turn out when O=C([O-])c1cccc(C(=O)[O-])n1.[Ca+2] [Ca^2+-dipicolinic acid] was run?
Answer: Its value is “still responded”.

Question: For C[C@@H](N)C(=O)O [D-alanine], which “inhibition of cell wall / peptidoglycan dependent germination (result in words)” value [1] is on record?
Answer: The value was “did not block cell wall dependent germination”.

Question: What does the source list for C[C@H](N)C(=O)O [L-alanine]?
Answer: germination of ΔprkC spores (result in words) [1]: still responded; germination of ΔprkC spores (result in words) ([1]; listed as alanine): still respond to alanine

Question: How did the “germination of wild type spores” value [1] turn out when CCCCCCCCCCCCCC(=O)O[C@@H]1[C@@H](C)[C@@]2(O)[C@@H](C=C(CO)C[C@]3(O)C(=O)C(C)=C[C@@H]23)[C@@H]2C(C)(C)[C@]12OC(C)=O [PMA, phorbol-12-myristate-13-acetate] was run?
Answer: Its value is “chemically induces germination”.

Question: CN[C@@H]1C[C@H]2O[C@@](C)([C@@H]1OC)n1c3ccccc3c3c4c(c5c6ccccc6n2c5c31)C(=O)NC4 [staurosporine] was tested. Which “germination with increasing amounts of peptidoglycan in the presence of inhibitor” value ([1]; 10 pM staurosporine, […]) did it give?
Answer: Its value is “did not increase germination”.

Question: What about the “concentration as low as which significantly reduced peptidoglycan-dependent germination” value ([1]; […], 100 ng/ml B. subtilis peptidoglycan, 60 min) of the same compound?
Answer: The value was 10 pM.

Question: And the “effect on L-alanine germination” value ([1]; data not shown)?
Answer: Its value is “unaffected”.

Question: With Ala-D-γ-Glu-Dpm tripeptide as the compound, how does the “germination of wild type spores” value ([1]; wild type B. subtilis spores) read?
Answer: The value was “failed to induce germination”.

Question: Which “concentration as low as which led to germination” value [1] does the source give for GlcNAc-MurNAc tripeptide [Muropeptide] here?
Answer: The value was 1 µM.

Question: What about the “germination of ΔprkC spores” value [1] of the same compound?
Answer: Its value is “failed to germinate”.

Question: What about the “% Loss in viable cells” value [3] of the same compound?
Answer: The value was 72 ± 3%.

Question: Which “germination of wild type spores” value [1] does the source give for Teleocidin here?
Answer: The value was “able to stimulate germination of only the wildtype spore; also recorded: stimulated germination of wildtype spores”.

Question: What about the “germination of ΔprkC spores” value [1] of the same compound?
Answer: Its value is “able to stimulate germination of only the wildtype spore”.
